These results are taken from BindingDB's records for doi:10.1021/jm980001q (G.D. Searle And, 1998).

For this assay, the target named is T1, Glycylpeptide N-tetradecanoyltransferase (Candida albicans (strain SC5314 / ATCC MYA-2876), UniProt P30418).
T1 sequence (P30418 whole entry): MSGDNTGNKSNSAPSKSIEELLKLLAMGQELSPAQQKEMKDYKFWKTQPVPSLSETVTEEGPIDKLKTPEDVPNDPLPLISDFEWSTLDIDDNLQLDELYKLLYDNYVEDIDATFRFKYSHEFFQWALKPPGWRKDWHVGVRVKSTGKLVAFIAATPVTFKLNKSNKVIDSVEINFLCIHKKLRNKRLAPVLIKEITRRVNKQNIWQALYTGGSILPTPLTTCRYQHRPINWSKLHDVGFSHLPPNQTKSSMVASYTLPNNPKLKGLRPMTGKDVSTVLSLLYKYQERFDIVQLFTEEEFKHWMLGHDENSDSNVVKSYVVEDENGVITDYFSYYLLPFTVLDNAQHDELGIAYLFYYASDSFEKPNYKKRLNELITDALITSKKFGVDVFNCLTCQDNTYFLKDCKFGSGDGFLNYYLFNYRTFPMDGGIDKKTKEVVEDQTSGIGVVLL
Nature of the assay: The Compound was tested for the inhibition potency against Candida albicans N-myristoyltransferase (NMT) and reported as apparent Ki.

pKi: −log10 of the molar value.

One may read the pKi as the negative decadic logarithm of the Ki, by convention in mol/L. Consider H-ALYASKLS-NH2, for which the pKi is 4.82.
